Data: US20130203649A1, “INHIBITORS OF TLR SIGNALING BY TARGETING TIR DOMAIN INTERFACES” (UNIVERSITY OF MARYLAND, BALTIMORE, priority 2012, published 2013)
Residues, ends and D or L forms follow the SMILES beside them. No end group written: not given here.

Columns and labels:
MAPK (ERK, JNK, p38) = assay: MAPK activation by peptide alone, macrophages without TLR agonist; type: cell-based, mouse; conditions: 20 μM peptide, 1 hour incubation
Procedure: Neither TIRAP peptide activated ERK in cells incubated without a TLR agonist (not shown). […] The mechanism of this differential MAPK activation by select peptides, although interesting, is not understood at this time. Peptides TR9 and TR11 inhibited both ERK and JNK MAPKs (FIG. 1D). Peptide-induced inhibition of ERK persisted over a long period of time.
We next examined whether TRAM peptides inhibit the TLR4-mediated p38, ERK, and JNK MAPK activation. Murine macrophages pretreated with peptides for 30 min were challenged with LPS. Cell lysates were collected 30 min post-stimulation and analyzed for MAPK phosphorylation by Western analysis. Consistent with peptide effects on steady-state mRNA, both TM4 and TM6 inhibited activation of all three MAPKs (FIG. 5C). The inhibition of MAPKs by TM4 or TM6 was long lasting; it persisted for at least 1 h after LPS stimulation (data not shown). To characterize further the effects of TRAM peptides on MAPKs, murine macrophages were treated with TRAM peptides, but not challenged by LPS.

TLR2/TLR1 heterodimer = biological target: T1, TLR2/TLR1 heterodimer (Mus musculus, UniProt Q9QUN7); assay: P3C-induced cytokine mRNA expression in mouse macrophages; type: cell-based; conditions: P3C 500 ng/ml, 1 h
T1 construct: endogenous in cells; host or cells: thioglycollate-elicited mouse peritoneal macrophages
T1 sequence (Q9QUN7 25-784, one chain of several): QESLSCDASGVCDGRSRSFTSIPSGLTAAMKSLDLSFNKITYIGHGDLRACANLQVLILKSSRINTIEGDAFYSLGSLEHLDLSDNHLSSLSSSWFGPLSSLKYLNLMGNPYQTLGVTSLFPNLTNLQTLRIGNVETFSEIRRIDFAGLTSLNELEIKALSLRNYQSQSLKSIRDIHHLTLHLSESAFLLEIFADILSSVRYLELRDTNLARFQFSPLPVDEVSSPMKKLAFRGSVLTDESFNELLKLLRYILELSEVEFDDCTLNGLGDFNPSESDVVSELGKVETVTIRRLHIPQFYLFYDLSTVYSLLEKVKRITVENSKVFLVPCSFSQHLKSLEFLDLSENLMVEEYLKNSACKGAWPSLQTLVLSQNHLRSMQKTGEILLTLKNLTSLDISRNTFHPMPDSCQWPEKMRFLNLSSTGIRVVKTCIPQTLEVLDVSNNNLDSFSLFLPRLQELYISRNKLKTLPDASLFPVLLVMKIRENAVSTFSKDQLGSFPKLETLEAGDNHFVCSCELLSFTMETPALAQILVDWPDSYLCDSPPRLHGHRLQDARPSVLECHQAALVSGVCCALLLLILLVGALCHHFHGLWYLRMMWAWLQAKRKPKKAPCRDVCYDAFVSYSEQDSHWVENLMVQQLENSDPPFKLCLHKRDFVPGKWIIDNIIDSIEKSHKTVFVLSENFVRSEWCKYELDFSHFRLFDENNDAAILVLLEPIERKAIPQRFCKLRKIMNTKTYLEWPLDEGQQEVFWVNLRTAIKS
Description: Total cellular RNA was isolated using Tripure from Roche (San Francisco, Calif.) following manufacture's protocol. RNA was then reverse transcribed using AMV Reverse Transcriptase from Promega (Madison, Wis.) with poly-T priming as per manufacturer's directions. cDNA was then quantified by real-time PCR using Applied Biosystems Fast SYBR Green PCR Master Mix and an ABI Prism 7500HT cycler. Primers used for detection: hypoxanthine phosphoribosyltransferase (HPRT) (forward: […] (SEQ ID NO:51), reverse: […] (SEQ ID NO:52)), TNFα (forward: […] (SEQ ID NO:53), reverse: […] (SEQ ID NO:54)), IL-1β (forward: […] (SEQ ID NO:55), reverse: […] (SEQ ID NO:56)), IFNβ (forward: […] (SEQ ID NO:57), reverse: CTCGGACCACCATCCAGG (SEQ ID NO:58)) and RANTES (forward: […] (SEQ ID NO:59), reverse: […] (SEQ ID NO:60)). The primers were designed using Primer Express 2.0 (Applied Biosystems). Using HPRT as reference, the ΔCt method was used to calculate relative gene expression. One-way ANOVA was preformed, as well as Dunnett's multiple comparison post hoc test with a p≦0.01 selected as the level of significance.
(§1) Protein-free Escherichia coli K235 LPS was used at final concentration of 10 ng/ml to stimulate cells. S-[2,3-bis(palmitoyloxy)-(2-RS)-propyl]-N-palmitoyl-(R)-Cys-Ser-Lys4-OH (P3C) and S-[2,3-bis(palmitoyloxy)-(2-RS)-propyl]-[R]-Cys-Ser-Lys4-OH (P2C) were purchased from EMC microcollections GmbH (Tubingen, Germany) and used for cell stimulation at 500 and 50 ng/ml, respectively. Phospho-ERK1/2 and phospho-JNK1/2 rabbit Abs were obtained from Cell Signaling Technology, Inc. β-actin rabbit Ab were from SantaCruz Biotechnology, Inc.
(§2) Because of the role TRAP plays in TLR2 signaling, TIRAP TIR-derived decoy peptide effects on TLR2-induced cytokine mRNA expression were examined. Thioglycollate-elicited mouse macrophages were stimulated either by P2C, an agonist that induces signaling through TLR2/TLR6 heterodimerization, or P3C, a TLR2/TLR1 agonist, and effects of TIRAP TR-derived decoy peptides on induction of cytokine mRNA were examined. […] To confirm the inhibitory effect of TR3 and TR6 on P3C-induced signaling, IL-6 and TNF-α concentration was measured in macrophage supernatants collected 5 h after stimulation of cells with P3C. […] Concordantly, both TR3 and TR6 diminished the P3C-induced ERK phosphorylation (FIG. 3D).
(§3) C57BL/6J mice were obtained from The Jackson Laboratory (BarHarbor, Me.). Harvesting, culturing, and stimulation of peritoneal macrophages were described in previous publications (1, 18, 19). Escherichia coli K235 LPS (34) was used at the final concentration of 100 ng/ml. The 2,3-bis(palmitoyloxy)-(2-RS)-propyl-N-palmitoyl-(R)-Cys-Ser-Lys4-OH (P3C) and S[2,3-bis(palmitoyloxy)-(2-RS)-propyl]-[R]-Cys-Ser-Lys4-OH (P2C) (EMC Microcollections, Tubingen, Germany) were used at 500 and 50 ng/ml, respectively. Oligonucleotide (ODN) 1668 and low m.w. polyinosinic-polycytidylic acid [poly(I:C)] in complex with LyoVec were obtained from InvivoGen; these agonists were used at 2.5 μM and 400 ng/ml, respectively.

TLR2 = biological target: T2, TLR2 (Mus musculus, UniProt Q9QUN7); assay: Inhibition of TLR2 signaling in thioglycollate-elicited mouse macrophages (effective concentration, TLR2 agonists P3C/P2C); type: cell-based; conditions: mouse macrophages, P3C/P2C
T2 construct: Primary peritoneal macrophages were obtained by peritoneal lavage; endogenous in cells; host or cells: thioglycollate-elicited mouse peritoneal macrophages
T2 sequence (Q9QUN7 25-784): as the sequence (Q9QUN7 25-784, one chain of several) above
Procedure: C57BL/6J mice were obtained from The Jackson Laboratory (Bar Harbor, Me.). Primary peritoneal macrophages were obtained by peritoneal lavage 4 days after intraperitoneal injection (3 ml) of sterile 3% thioglycolate broth. Washed cells were resuspended in RPMI 1640 which contained 2% FBS, 1% penicillin:streptomycin and 2 mM L-glutamine. After plating, cells were incubated overnight at 37° C. and then washed with PBS to remove non-adherent cells. Cells were exposed to peptides 30 min before stimulation with a TLR agonist.
as §1, §2, §3

Compound | JNK activation in macrophages without TLR agonist (MAPK (ERK, JNK, p38)) | P3C-induced TNFα and IL-1β mRNA (TLR2/TLR1 heterodimer; 20 μM peptide) | P3C-induced TNFα and IL-1β mRNA (TLR2/TLR1 heterodimer; 40 μM peptide) | Inhibition of TLR2 signaling (overall) (TLR2)
RQIKIWFQNRRMKWKKPGFLRDPWCKYQML [TR6] | moderately activated | inhibited | profoundly inhibited | 
RQIKIWFQNRRMKWKKEGSQASLRCF [TR3] | moderately activated | inhibited | profoundly inhibited | inhibits
CC[C@H](C)[C@H](NC(=O)[C@H](CCCCN)NC(=O)[C@@H](NC(=O)[C@H](CCC(N)=O)NC(=O)[C@@H](N)CCCNC(=N)N)[C@@H](C)CC)C(=O)N[C@@H](Cc1c[nH]c2ccccc12)C(=O)N[C@@H](Cc1ccccc1)C(=O)N[C@@H](CCC(N)=O)C(=O)N[C@@H](CC(N)=O)C(=O)N[C@@H](CCCNC(=N)N)C(=O)N[C@@H](CCCNC(=N)N)C(=O)N[C@@H](CCSC)C(=O)N[C@@H](CCCCN)C(=O)N[C@@H](Cc1c[nH]c2ccccc12)C(=O)N[C@@H](CCCCN)C(=O)N[C@@H](CCCCN)C(=O)N[C@@H](CCC(=O)O)C(=O)N[C@@H](CC(C)C)C(=O)N[C@@H](CS)C(=O)N[C@@H](CCC(N)=O)C(=O)N[C@@H](C)C(=O)N[C@@H](CC(C)C)C(=O)N[C@@H](CO)C(=O)N[C@@H](CCCNC(=N)N)C(=O)N[C@@H](CO)C(=O)N[C@@H](Cc1c[nH]cn1)C(=O)N[C@@H](CS)C(=O)N[C@@H](CCCNC(=N)N)C(=O)O [TR5] (H-RQIKIWFQNRRMKWKKELCQALSRSHCR-OH) |  |  |  | does not
